Values of other authors, collected in patent US9358298B2, “17-hydroxyprogesterone ester containing oral compositions and related methods” (Lipocine Inc., priority 2011, dated 2016).

Assays:
[1] = given by mouth; Saxton et al. 2004, Greene NEJM

In the case of CCCCCC(=O)O[C@]1(C(C)=O)CC[C@H]2[C@@H]3CCC4=CC(=O)CC[C@]4(C)[C@H]3CC[C@@]21C [17-hydroxyprogesterone caproate, 17-alpha-hydroxyprogesterone caproate], the solubility in water is listed as < 0.02 µg/mL and the oral activity [1] is listed as “no oral activity”.
